This note sets out measurements from patent publication US7563905B2, “Triazole derivatives and method of using the same to treat HIV infections” (Wyeth, priority 2004, dated 2009).

By IC50 is commonly meant the concentration needed to halve the response being measured. The low end stands for higher potency, the high end for lower potency.

One assay addresses T1, HIV reverse transcriptase (Human immunodeficiency virus type 1 group M subtype B, UniProt P04585).
T1 construct: HIV reverse transcriptase has an RNase H domain at the C-terminus of its p66 subunit
Description: Inhibition of HIV reverse transcriptase (RNase H fluorescent probe assay), Table I. The assay is classed as biochemical. An excerpt: RNase H is an enzyme responsible for the removal of RNA primers from leading and lagging strands during DNA synthesis. It is an important enzyme for the replication of bacterial, viral and human genomes. HIV reverse transcriptase has an RNase H domain at the C-terminus of its p66 subunit. […] The ability of the compounds of the present invention to inhibit RNase H, and more particularly HIV reverse transcriptase, may be determined by any means known in the art.
Preferably, the RNase H/HIV reverse transcriptase modulatory activity of the compounds of the present invention may be determined by the methods described in copending U.S. Provisional Patent Application No. 60/436,125, filed Dec. 19, 2002 and PCT International Publication No. WO/2004/059012, filed Dec. 22, 2003 for ASSAY FOR RNase ACTIVITY of Olson et al., incorporated herein by reference in its entirety. Specifically, the modulatory activity of a triazole derivative of the present invention may be determined by hybridizing a target nucleic acid to a fluorescently labeled oligonucleotide probe complementary to the target nucleic acid and containing a fluorophor at one terminus and a quenching group at the other terminus to obtain a probe-target hybrid, wherein (i) the unhybridized probe adopts a conformation that places the fluorophon and quencher in such proximity that the quencher quenches the fluorescent signal of the fluorophon, and (ii) the formation of the probe-target hybrid causes sufficient separation of the fluorophon and quencher to reduce quenching of the fluorescent signal of the fluorophon. Next, a first and second sample containing the probe-target hybrid are prepared. The probe-target hybrid of the first sample is then contacted with an RNase H enzyme (such as HIV reverse transcriptase) in an amount sufficient to selectively cleave the target nucleic acid and thereby release the intact probe. The probe-target hybrid of the second sample is also contacted with the RNase H enzyme in an amount sufficient to selectively cleave the target nucleic acid and thereby release the intact probe in the presence of a triazole derivative of the present invention. The release of the probe in each sample may then be detected by measuring the […] in the fluorescent signal of the fluorophon as compared to the signal of the probe-target hybrid. A comparison of the rate of the decrease in the fluorescent signal of the fluorophon in the two samples is made to determine whether there is a difference in the rate of the decrease in the two samples. […] This method is also useful to identify triazole derivatives of the present invention, wherein candidate derivatives are screened for their ability to modulate RNase/HIV reverse transcriptase activity.
Turning to `Clc1ccc(CSc2nnc(-c3cccs3)n2Cc2ccccc2)cc1` [Example 1, 4-benzyl-3-[(4-chlorobenzyl)thio]-5-thien-2-yl-4H-1,2,4-triazole], the IC50 came out at 1.3 µM. Same read-out and setting: the figure for `c1ccc(CSc2nnc(-c3cccs3)n2Cc2ccccc2)cc1` [Example 2, 4-benzyl-3-(benzylthio)-5-thien-2-yl-4H-1,2,4-triazole] is less than 0.2 µM; for `c1ccc(Cn2c(SCc3ccncc3)nnc2-c2cccs2)cc1` [Example 3, 4-{[(4-benzyl-5-thien-2-yl-4H-1,2,4-triazol-3-yl)thio}methyl}pyridine] it is 0.2 µM; for `COc1ccc(CSc2nnc(-c3ccccc3)n2Cc2ccccc2)cc1` [Example 4, 4-benzyl-3-[(4-methoxybenzyl)thio]-5-phenyl-4H-1,2,4-triazole] it is 1 µM. `c1ccc(CSc2nnc(-c3ccccc3)n2Cc2ccccc2)cc1` [Example 5, 4-benzyl-3-(benzylthio)-5-phenyl-4H-1,2,4-triazole] gave an IC50 of 1 µM. Same read-out and setting: the figure for `c1ccc(CSc2nnc(-c3ccco3)n2Cc2ccccc2)cc1` [Example 6, 4-benzyl-3-(benzylthio)-5-(2-furyl)-4H-1,2,4-triazole] is 1.2 µM; for `c1ccc(CSc2nnc(-c3ccccn3)n2Cc2ccccc2)cc1` [Example 7, 2-[4-benzyl-5-(benzylthio)-4H-1,2,4-triazol-3-yl]pyridine] it is 1.7 µM; for `c1ccc(Cn2c(SCc3ccncc3)nnc2-c2ccccn2)cc1` [Example 8, 2-[4-benzyl-5-[(pyridine-4-ylmethyl)thio)-4H-1,2,4-triazol-3-yl]pyridine] it is 2.6 µM.

In turn, `COc1ccc(CSc2nnc(-c3ccco3)n2Cc2ccccc2)cc1` [Example 9, 4-benzyl-3-(2-furyl)-5-[(4-methoxybenzyl)thio]-4H-1,2,4-triazole] registered an IC50 of 3.8 µM. Same read-out and setting: with `Clc1ccc(CSc2nnc(-c3ccco3)n2Cc2ccccc2)cc1` [Example 10, 4-benzyl-3-[(4-chlorobenzyl)thio]-5-(2-furyl)-4H-1,2,4-triazole] the figure was 3.8 µM; with `FC(F)(F)c1ccc(CSc2nnc(-c3ccco3)n2-c2ccccc2)cc1` [Example 12, 3-(2-furyl)-4-phenyl-5-{[4-(trifluoromethyl)benzyl]thio}-4H-1,2,4-triazole], 4.7 µM. `COc1ccc(CSc2nnc(-c3cccs3)n2Cc2ccccc2)cc1` [Example 13, 4-benzyl-3-[(4-methoxybenzyl)thio]-5-thien-2-yl-4H-1,2,4-triazole] registered an IC50 of 5.9 µM. Still for that read-out and setting: the figure for `COc1ccc(Cn2c(SCc3ccc(C(F)(F)F)cc3)nnc2-c2ccco2)cc1` [Example 14, 3-(2-furyl)-4(4-methoxybenzyl)-5-{[4-(trifluoromethyl)benzyl]thio}-4H-1,2,4-triazole] is 6.5 µM. Same read-out and setting: the figure for `Clc1ccc(CSc2nnc(-c3ccccc3)n2Cc2ccccc2)cc1` [Example 15, 4-benzyl-3-(4-chloro-benzylsulfanyl)-5-phenyl-4H-1,2,4-triazole] is 6 µM; for `COc1ccc(CSc2nnc(-c3ccccn3)n2Cc2ccccc2)cc1` [Example 16, 2-[4-benzyl-5-(4-methoxy-benzylsulfanyl)-4H-1,2,4-triazol-3-yl]pyridine] it is 7 µM. For `Clc1ccc(CSc2nnc(-c3ccccn3)n2Cc2ccccc2)cc1` [Example 17, 2-[4-benzyl-5-(4-chloro-benzylsulfanyl)-4H-1,2,4-triazol-3-yl]pyridine], the IC50 was determined as 23 µM. For the molecule `COc1ccc(Cn2c(SCc3ccccc3)nnc2-c2ccco2)cc1` [Example 18, 3-benzylsulfanyl-5-furan-2-yl-4-(4-methoxy-benzyl)-4H-1,2,4-triazole], the IC50 amounted to 46 µM.

The target of a further assay is T2, HIV Reverse transcriptase (RT) 66/p51 (Human immunodeficiency virus type 1 group M subtype B, UniProt P04585).
T2 construct: HIV Reverse transcriptase (RT) 66/p51; purchased Worthington
Nature of the assay: RNA dependent DNA polymerase (RDDP) activity of HIV RT, polyrA-oligodT12-18 / 33P TTP incorporation filter assay. The assay is classed as biochemical.
In the case of `Cc1cn([C@H]2C[C@H](N=[N+]=[N-])[C@@H](CO)O2)c(=O)[nH]c1=O` [AZT], the IC50 is less than 200 nM.
